According to paper PMC6522981, “Structure-based design generated novel hydroxamic acid based preferential HDAC6 lead inhibitor with on-target cytotoxic activity against primary choroid plexus carcinoma” (Journal of Enzyme Inhibition and Medicinal Chemistry, 2019):
Where two headings read alike, the source gives them in different places. Values belong to the compound of their own block, whether it stands above or below them.

Legend:
human HDAC8 = target: T1, human HDAC8 (Homo sapiens, UniProt Q9BY41); assay: HDAC8 inhibitor enzymatic assay, % inhibition at fixed concentration; type: biochemical; settings: for inhibition at 10 µM: read-out: %inhibition of HDACs at 10µM of test compound HDAC8
T1 construct: purchased BPS Bioscience 50008
T1 sequence (Q9BY41 1-377): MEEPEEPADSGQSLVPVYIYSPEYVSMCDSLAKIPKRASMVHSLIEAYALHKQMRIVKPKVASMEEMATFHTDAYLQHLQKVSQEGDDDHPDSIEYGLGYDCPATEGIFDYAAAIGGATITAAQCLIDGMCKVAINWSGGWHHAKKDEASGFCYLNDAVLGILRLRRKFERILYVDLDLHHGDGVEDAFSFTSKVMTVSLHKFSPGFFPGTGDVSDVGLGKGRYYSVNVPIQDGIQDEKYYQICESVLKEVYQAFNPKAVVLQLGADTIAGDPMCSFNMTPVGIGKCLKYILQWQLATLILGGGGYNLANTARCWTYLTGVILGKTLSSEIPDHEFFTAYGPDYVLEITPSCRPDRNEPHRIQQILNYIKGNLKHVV

human HDAC6 [1] = target: T2, human HDAC6 (Homo sapiens, UniProt Q9UBN7); assay: HDAC6 inhibitor enzymatic assay, % inhibition at fixed concentration; settings: for inhibition at 10 µM: read-out: %inhibition of HDACs at 10µM of test compound HDAC6
T2 sequence (Q9UBN7 1-1215): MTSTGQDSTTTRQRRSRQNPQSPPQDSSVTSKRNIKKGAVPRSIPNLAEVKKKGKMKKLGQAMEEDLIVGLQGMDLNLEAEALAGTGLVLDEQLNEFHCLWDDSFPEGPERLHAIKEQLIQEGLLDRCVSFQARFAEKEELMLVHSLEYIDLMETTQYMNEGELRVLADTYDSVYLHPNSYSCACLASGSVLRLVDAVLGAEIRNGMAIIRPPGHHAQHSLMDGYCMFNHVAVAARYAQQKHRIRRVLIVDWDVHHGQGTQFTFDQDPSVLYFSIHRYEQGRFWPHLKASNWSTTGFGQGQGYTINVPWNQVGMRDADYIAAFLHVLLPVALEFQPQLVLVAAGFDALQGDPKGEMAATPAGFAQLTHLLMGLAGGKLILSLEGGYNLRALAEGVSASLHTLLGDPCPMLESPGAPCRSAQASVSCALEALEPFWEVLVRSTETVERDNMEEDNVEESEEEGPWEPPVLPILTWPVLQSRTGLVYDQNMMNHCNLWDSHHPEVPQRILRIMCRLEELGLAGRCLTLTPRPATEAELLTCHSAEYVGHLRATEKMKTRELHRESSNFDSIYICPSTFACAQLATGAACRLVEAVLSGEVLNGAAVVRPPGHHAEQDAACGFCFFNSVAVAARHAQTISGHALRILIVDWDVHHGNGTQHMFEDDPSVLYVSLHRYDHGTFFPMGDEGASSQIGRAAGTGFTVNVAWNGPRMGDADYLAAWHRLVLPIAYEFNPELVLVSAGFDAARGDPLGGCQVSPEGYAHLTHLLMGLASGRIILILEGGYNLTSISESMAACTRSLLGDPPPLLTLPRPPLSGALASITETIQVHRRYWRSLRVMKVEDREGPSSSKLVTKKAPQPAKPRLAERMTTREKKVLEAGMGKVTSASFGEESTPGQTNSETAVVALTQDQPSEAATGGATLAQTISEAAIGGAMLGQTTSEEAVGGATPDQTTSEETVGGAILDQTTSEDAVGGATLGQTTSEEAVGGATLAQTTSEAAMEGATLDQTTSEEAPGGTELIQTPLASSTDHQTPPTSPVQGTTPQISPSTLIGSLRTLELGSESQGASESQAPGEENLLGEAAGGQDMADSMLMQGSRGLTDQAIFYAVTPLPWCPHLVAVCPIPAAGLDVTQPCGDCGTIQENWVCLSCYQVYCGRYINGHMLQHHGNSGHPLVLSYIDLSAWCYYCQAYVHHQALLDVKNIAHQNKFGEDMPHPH

human HDAC1 = target: T3, human HDAC1 (Homo sapiens, UniProt Q13547); assay: HDAC1 inhibitor enzymatic assay, % inhibition at fixed concentration (BPS Bioscience, fluorogenic); type: biochemical; settings: read-out: %inhibition of HDACs at 10µM of test compound HDAC1; 10 µM compound; mean of two replicates
T3 construct: purchased BPS Bioscience 50051
T3 sequence (Q13547 whole entry): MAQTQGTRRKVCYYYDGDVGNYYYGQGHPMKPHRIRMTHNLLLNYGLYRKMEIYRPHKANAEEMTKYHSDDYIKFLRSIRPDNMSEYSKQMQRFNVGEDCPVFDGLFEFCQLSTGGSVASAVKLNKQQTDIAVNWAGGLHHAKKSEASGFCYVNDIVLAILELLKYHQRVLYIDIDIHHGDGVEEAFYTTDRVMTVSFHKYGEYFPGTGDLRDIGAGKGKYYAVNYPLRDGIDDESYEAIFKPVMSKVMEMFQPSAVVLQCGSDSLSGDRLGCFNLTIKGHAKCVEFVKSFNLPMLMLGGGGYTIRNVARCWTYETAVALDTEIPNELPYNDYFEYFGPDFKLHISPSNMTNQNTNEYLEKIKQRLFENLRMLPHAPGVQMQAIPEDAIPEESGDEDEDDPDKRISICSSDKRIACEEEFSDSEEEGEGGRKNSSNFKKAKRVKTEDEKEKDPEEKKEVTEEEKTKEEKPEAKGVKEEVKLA

human HDAC2 = target: T4, human HDAC2 (Homo sapiens, UniProt Q92769); assay: HDAC2 inhibitor enzymatic assay, % inhibition at fixed concentration; type: biochemical; settings: read-out: %inhibition of HDACs at 10µM of test compound HDAC2; 10 µM compound; mean of two replicates
T4 construct: purchased BPS Bioscience 50002
T4 sequence (Q92769 whole entry): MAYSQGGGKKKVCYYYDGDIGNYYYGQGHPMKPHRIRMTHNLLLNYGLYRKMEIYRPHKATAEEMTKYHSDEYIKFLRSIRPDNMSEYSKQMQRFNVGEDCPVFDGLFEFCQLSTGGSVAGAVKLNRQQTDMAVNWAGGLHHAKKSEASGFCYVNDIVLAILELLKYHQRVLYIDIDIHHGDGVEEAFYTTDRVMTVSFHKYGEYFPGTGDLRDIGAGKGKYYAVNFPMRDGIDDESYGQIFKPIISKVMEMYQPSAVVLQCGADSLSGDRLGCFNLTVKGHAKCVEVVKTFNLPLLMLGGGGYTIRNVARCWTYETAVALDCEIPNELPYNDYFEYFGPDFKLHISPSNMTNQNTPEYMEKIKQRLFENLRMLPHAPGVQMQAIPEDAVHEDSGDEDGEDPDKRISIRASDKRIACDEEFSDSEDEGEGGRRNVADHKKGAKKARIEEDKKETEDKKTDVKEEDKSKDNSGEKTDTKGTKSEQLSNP

human HDAC4 = human HDAC4 (Homo sapiens, UniProt P56524); assay: HDAC4 inhibitor enzymatic assay, % inhibition at fixed concentration
Sequence of human HDAC4 (P56524 627-1084 limits assumed): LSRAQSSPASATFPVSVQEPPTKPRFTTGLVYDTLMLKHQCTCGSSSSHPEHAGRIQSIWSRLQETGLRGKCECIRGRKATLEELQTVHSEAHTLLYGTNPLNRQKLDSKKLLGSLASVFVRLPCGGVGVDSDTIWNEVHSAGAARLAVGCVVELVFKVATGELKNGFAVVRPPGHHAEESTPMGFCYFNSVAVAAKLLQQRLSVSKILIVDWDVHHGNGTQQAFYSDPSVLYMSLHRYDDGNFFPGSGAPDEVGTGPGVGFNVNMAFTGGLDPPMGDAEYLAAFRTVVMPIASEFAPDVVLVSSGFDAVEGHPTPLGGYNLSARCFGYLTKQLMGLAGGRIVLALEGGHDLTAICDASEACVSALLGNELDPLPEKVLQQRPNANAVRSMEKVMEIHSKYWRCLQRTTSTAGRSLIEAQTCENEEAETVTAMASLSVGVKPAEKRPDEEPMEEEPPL

human HDAC9 = human HDAC9 (Homo sapiens, UniProt Q9UKV0); assay: HDAC9 inhibitor enzymatic assay, % inhibition at fixed concentration
Sequence of human HDAC9 (Q9UKV0 1-1066 isoform Q9UKV0-5): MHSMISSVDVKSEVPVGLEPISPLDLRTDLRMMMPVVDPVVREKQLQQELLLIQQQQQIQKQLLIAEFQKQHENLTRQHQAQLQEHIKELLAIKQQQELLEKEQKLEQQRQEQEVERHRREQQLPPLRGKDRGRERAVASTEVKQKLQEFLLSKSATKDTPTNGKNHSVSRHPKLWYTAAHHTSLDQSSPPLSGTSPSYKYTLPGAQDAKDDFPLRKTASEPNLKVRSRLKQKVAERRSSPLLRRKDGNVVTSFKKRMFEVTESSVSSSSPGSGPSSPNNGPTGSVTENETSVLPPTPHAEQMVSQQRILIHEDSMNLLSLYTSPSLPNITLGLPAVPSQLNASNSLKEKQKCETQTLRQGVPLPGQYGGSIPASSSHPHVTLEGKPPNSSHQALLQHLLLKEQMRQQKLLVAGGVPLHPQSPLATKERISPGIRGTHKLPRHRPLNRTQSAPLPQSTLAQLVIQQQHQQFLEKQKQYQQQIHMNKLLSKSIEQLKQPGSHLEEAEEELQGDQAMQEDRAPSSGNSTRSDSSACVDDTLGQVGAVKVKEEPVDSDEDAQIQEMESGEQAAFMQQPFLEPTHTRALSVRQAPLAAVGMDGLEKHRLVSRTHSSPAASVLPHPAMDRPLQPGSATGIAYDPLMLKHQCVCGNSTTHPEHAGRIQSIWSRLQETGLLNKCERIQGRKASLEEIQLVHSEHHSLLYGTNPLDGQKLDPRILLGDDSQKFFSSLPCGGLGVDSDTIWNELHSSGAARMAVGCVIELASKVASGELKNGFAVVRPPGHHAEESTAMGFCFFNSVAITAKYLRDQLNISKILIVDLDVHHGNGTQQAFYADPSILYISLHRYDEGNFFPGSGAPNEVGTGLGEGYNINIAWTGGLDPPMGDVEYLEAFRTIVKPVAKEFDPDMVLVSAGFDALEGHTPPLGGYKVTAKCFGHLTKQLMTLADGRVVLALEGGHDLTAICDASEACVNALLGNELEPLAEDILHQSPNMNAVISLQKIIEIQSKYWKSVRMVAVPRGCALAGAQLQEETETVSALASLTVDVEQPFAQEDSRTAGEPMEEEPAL

human HDAC6 [2] = target: T2, human HDAC6; assay: IC50 of the test inhibitor against HDAC6 (10-dose enzymatic assay); type: biochemical; parameters: purchased BPS Bioscience 50006
human HDAC5 = human HDAC5 (Homo sapiens, UniProt Q9UQL6); assay: HDAC5 inhibitor enzymatic assay, % inhibition at fixed concentration
Sequence of human HDAC5 (Q9UQL6 656-1122 limits assumed): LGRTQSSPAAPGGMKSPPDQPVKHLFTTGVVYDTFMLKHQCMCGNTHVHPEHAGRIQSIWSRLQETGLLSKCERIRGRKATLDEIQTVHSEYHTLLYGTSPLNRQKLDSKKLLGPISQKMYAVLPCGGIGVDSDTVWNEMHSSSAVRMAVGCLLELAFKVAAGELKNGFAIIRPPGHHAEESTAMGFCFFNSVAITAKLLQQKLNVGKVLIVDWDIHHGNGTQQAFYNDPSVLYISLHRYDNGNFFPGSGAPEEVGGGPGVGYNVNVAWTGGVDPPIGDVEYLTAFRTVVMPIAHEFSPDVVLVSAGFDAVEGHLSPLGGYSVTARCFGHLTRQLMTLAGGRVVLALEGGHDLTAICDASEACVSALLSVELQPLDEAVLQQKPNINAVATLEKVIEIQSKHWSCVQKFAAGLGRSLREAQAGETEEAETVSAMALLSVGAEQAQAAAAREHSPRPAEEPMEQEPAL

human HDAC11 = target: T5, human HDAC11 (Homo sapiens, UniProt Q96DB2); assay: HDAC11 inhibitor enzymatic assay, % inhibition at fixed concentration
T5 sequence (Q96DB2 1-347): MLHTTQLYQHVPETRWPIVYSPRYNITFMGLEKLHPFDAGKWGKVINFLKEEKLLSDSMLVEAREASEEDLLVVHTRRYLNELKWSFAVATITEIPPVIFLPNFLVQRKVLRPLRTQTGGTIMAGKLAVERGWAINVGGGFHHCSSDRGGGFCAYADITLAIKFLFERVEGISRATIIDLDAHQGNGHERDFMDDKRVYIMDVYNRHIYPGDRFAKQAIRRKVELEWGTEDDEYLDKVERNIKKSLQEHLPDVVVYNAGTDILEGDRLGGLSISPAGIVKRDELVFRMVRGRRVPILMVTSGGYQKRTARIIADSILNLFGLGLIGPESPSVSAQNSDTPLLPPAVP

[3] = system: CCHE-45 cells (primary choroid plexus carcinoma); assay: Cytotoxicity assay using xCELLigence system; type: cell-based; settings: xCELLigence, 96 h exposure; mean of three replicates; read-out: CCHE-45 IC50 (µM)±SEM
Description: Established primary Choroid plexus carcinoma (CCHE-45) were cultured as previously described, in RPMI-1640 (Lonza, BE-12-702F) supplemented with 10% Fetal Bovine Serum (FBS, Gibco, 12483–020) and 100 U/ml penicillin and 100 µg/ml streptomycin (Lonza, DE17-602F). Cells were maintained at 37 °C in a 5% CO2 humidified atmosphere.
Cytotoxicity assay by the xCELLigence system was performed using RTCA xCELLigence DP system (ACEA Biosciences, Inc., San Diego, CA, USA) as per manufacturer’s instructions https://www.aceabio.com/products/rtca-dp/, https://www.aceabio.com/products/rtca-sp[65–68]. In brief, after setting up the instruments and blanking the wells with media, CCHE-45 cells were seeded into the 96 well E-plate (ACEA Biosciences) with a density of 20,000 cells/well. Attachment and growth of the cells were monitored every 1 h. Approximately 24 h after seeding, when the cells were in the log growth phase, the cells were exposed to a range of test compound 10a concentrations (3.125, 6.25, 12.5, 25, 50, 100, 200, 400) µM for 96 h. Controls received either medium alone, or medium + DMSO with a final concentration below of 0.5%. For each concentration, duplicates were tested. Experiments were conducted in three biological repeats. Results were analyzed using the RTCA software (Version 2.0). Data was exported and average IC50 value was analyzed.
• Based on previous pilot experiment, the highest SK114 conc. (100µM)
72hrs, thus this experiment was performed with higher concentration
• Cells were incubated with the drug for 96hrs
• Experiment was done in technical duplicates

[4] = read-out: HDAC6 % Activity Repeat1
[5] = read-out: HDAC6 % Activity Repeat2

- inhibition at 10 µM (human HDAC8; 10 µM compound): 14%
- inhibition at 10 µM (human HDAC6 [1]): 2%
- inhibition at 10 µM (human HDAC1): 6%
- melting point: 97 °C
- inhibition at 10 µM (human HDAC2): 5%
Compound: O=C(CSc1nc2ccccc2n1Cc1ccccc1)NO [Compound 6a, 2-((1-benzyl-1H-benzo[d]imidazol-2-yl)thio)-N-hydroxyacetamide]

- inhibition at 10 µM (human HDAC8; 10 µM compound): 12%
- inhibition at 10 µM (human HDAC6 [1]): 6%
- inhibition at 10 µM (human HDAC1): 18%
- melting point: 167 °C
- inhibition at 10 µM (human HDAC2): 6%
Compound: O=C(CSc1nc2ccccc2n1Cc1ccc(Br)cc1)NO [Compound 6b, 2-((1–(4-bromobenzyl)-1H-benzo[d]imidazol-2-yl)thio)-N-hydroxyacetamide]

- inhibition at 10 µM (human HDAC8; 10 µM compound): 14%
- inhibition at 10 µM (human HDAC6 [1]): 2%
- inhibition at 10 µM (human HDAC1): 13%
- melting point: 160 °C
- inhibition at 10 µM (human HDAC2): 7%
Compound: O=C(CSc1nc2ccccc2n1CC1CCCCC1)NO [Compound 6c, 2-((1-(Cyclohexylmethyl)-1H-benzo[d]imidazol-2-yl)thio)-N-hydroxyacetamide]

- inhibition at 10 µM (human HDAC8; 10 µM compound): 1%
- inhibition at 10 µM (human HDAC6 [1]): 2%
- inhibition at 10 µM (human HDAC1): 14%
- melting point: 157 °C
- inhibition at 10 µM (human HDAC2): 3%
Compound: O=C(CSc1nc2ccccc2n1CCC1CCCCC1)NO [Compound 6d, 2-((1–(2-cyclohexylethyl)-1H-benzo[d]imidazol-2-yl)thio)-N-hydroxyacetamide]

- inhibition at 10 µM (human HDAC8; 10 µM compound): 1%
- inhibition at 10 µM (human HDAC6 [1]): 12%
- inhibition at 10 µM (human HDAC1): 9%
- melting point: 153 °C
- inhibition at 10 µM (human HDAC2): 9%
Compound: O=C(CCCSc1nc2ccccc2n1Cc1ccc(Br)cc1)NO [Compound 10b, 4-((1–(4-bromobenzyl)-1H-benzo[d]imidazol-2-yl)thio)-N-hydroxybutanamide]

- inhibition at 10 µM (human HDAC8; 10 µM compound): 12%
- inhibition at 10 µM (human HDAC6 [1]): 14%
- inhibition at 10 µM (human HDAC1): 9%
- melting point: 149 °C
- inhibition at 10 µM (human HDAC2): 8%
Compound: O=C(CCCSc1nc2ccccc2n1CC1CCCCC1)NO [Compound 10c, 4-((1-(Cyclohexylmethyl)-1H-benzo[d]imidazol-2-yl)thio)-N-hydroxybutanamide]

- inhibition at 10 µM (human HDAC8; 10 µM compound): 10%
- inhibition at 10 µM (human HDAC6 [1]): 35%
- inhibition at 10 µM (human HDAC1): 11%
- melting point: 132 °C
- inhibition at 10 µM (human HDAC2): 8%
Compound: O=C(CCCSc1nc2ccccc2n1CCC1CCCCC1)NO [Compound 10d, 4-((1–(2-cyclohexylethyl)-1H-benzo[d]imidazol-2-yl)thio)-N-hydroxybutanamide]

- inhibition at 1 µM (human HDAC8; read-out: % Inhibition HDAC8): 53%
- inhibition at 10 µM (human HDAC8): 89%
- inhibition at 1 µM (human HDAC6 [1]; read-out: % Inhibition HDAC6): 100%
- inhibition at 1 µM (human HDAC4; read-out: % Inhibition HDAC4): 36%
- inhibition at 100 µM (human HDAC4; read-out: % Inhibition HDAC4): 92%
- inhibition at 10 µM (human HDAC4; read-out: %inhibition of HDACs at 10µM of test compound HDAC4): 64%
- inhibition at 1 µM (human HDAC9; read-out: % Inhibition HDAC9): 15%
- inhibition at 100 µM (human HDAC9; read-out: % Inhibition HDAC9): 95%
- inhibition at 10 µM (human HDAC9; read-out: %inhibition of HDACs at 10µM of test compound HDAC9): 60%
- activity at 30 pM (human HDAC6 [2]; [4]): 100%
- activity at 0.0001 µM (human HDAC6 [2]; [4]): 98%
- activity at 0.0003 µM (human HDAC6 [2]; [4]): 96%
- activity at 0.001 µM (human HDAC6 [2]; [4]): 79%
- activity at 0.003 µM (human HDAC6 [2]; [4]): 63%
- activity at 0.01 µM (human HDAC6 [2]; [4]): 36%
- activity at 0.03 µM (human HDAC6 [2]; [4]): 15%
- activity at 0.1 µM (human HDAC6 [2]; [4]): 5%
- activity at 0.3 µM (human HDAC6 [2]; [4]): 2%
- activity at 1 µM (human HDAC6 [2]; [4]): 0%
- activity at 30 pM (human HDAC6 [2]; [5]): 98%
- activity at 0.0001 µM (human HDAC6 [2]; [5]): 96%
- activity at 0.0003 µM (human HDAC6 [2]; [5]): 89%
- activity at 0.001 µM (human HDAC6 [2]; [5]): 84%
- activity at 0.003 µM (human HDAC6 [2]; [5]): 58%
- activity at 0.01 µM (human HDAC6 [2]; [5]): 34%
- activity at 0.03 µM (human HDAC6 [2]; [5]): 13%
- activity at 0.1 µM (human HDAC6 [2]; [5]): 5%
- activity at 0.3 µM (human HDAC6 [2]; [5]): 2%
- activity at 1 µM (human HDAC6 [2]; [5]): 0%
- inhibition at 1 µM (human HDAC5; read-out: % Inhibition HDAC5): 33%
- inhibition at 100 µM (human HDAC5; read-out: % Inhibition HDAC5): 93%
- inhibition at 10 µM (human HDAC5; read-out: %inhibition of HDACs at 10µM of test compound HDAC5): 64%
- inhibition at 1 µM (human HDAC11; read-out: % Inhibition HDAC11): 15%
- inhibition at 100 µM (human HDAC11; read-out: % Inhibition HDAC11): 91%
- inhibition at 10 µM (human HDAC11; read-out: %inhibition of HDACs at 10µM of test compound HDAC11): 49%
Compound: CC(=C/C(C)C(=O)c1ccc(N(C)C)cc1)/C=C/C(=O)NO (centres unmarked) [TSA, Trichostatin A, reference compound]

Compound: O=C(CCCCCCC(=O)Nc1ccc([C@H]2O[C@@H](CSc3nc(-c4ccccc4)c(-c4ccccc4)o3)C[C@@H](c3ccc(CO)cc3)O2)cc1)NO [Tubacin, reference compound]
- IC50 [3]: 20 ± 10.2 µM
